Measured values taken from patent publication US9113629B2, “4-amino-6-(4-substituted-phenyl)-picolinates and 6-amino-2-(4-substituted-phenyl)-pyrimidine-4-carboxylates and their use as herbicides” (DOW AGROSCIENCES LLC, priority 2013, dated 2015).
Where two headings read alike, the source gives them in different places.

Test system: test plant species in Direct Seeded Rice
Assay: Postemergence herbicidal activity in direct seeded rice (Table 13)
Format: in vivo
Conditions: for GR50 BRAPP / GR80 BRAPP / GR50 CYPSS / GR80 CYPSS / GR50 ECHSS / GR80 ECHSS / GR50 LEFSS / GR80 LEFSS / GR20 ORYSS / GR50 SCPJU / GR80 SCPJU / GR50 SEBEX / GR80 SEBEX: probit analysis; for GR20 ORYSS: ORYSS: Oryza sativa (crop); for pest or weed control at 35 g/ha / pest or weed control at 70 g/ha: post-emergence, 504 h
From the text: Seeds or nutlets of the desired test plant species were planted in a soil matrix prepared by mixing a loam soil (43 percent silt, 19 percent clay, and 38 percent sand, with a pH of about 8.1 and an organic matter content of about 1.5 percent) and river sand in an 80 to 20 ratio. The soil matrix was contained in plastic pots with a surface area of 139.7 cm^2. When required to ensure good germination and healthy plants, a fungicide treatment and/or other chemical or physical treatment was applied. The plants were grown for 10-17 d in a greenhouse with an approximate 14-h photoperiod which was maintained at about 29° C. during the day and 26° C. during the night. Nutrients and water were added on a regular basis and supplemental lighting was provided with overhead metal halide 1000-Watt lamps as necessary. The plants were employed for testing when they reached the second or third true leaf stage. A weighed amount, determined by the highest rate to be tested, of each test compound was placed in 25 mL glass vials and dissolved in a volume of 97:3 v/v acetone-DMSO to obtain 12× stock solutions. […] The concentrated stock solutions were added to the spray solutions so that the final acetone and DMSO concentrations were 16.2% and 0.5%, respectively. Spray solutions were diluted to the appropriate final concentrations with the addition of 10 mL of an aqueous mixture of 1.5% (v/v) Agri-dex crop oil concentrate. […] Compound requirements are based upon a 12 mL application volume at a rate of 187 L/ha. Formulated compounds were applied to the plant material with an overhead Mandel track sprayer equipped with […] nozzles calibrated to deliver 187 L/ha over an application area of 0.503 square meters (m^2) at a spray height of 18 inches (43 cm) above average plant canopy height. Control plants were sprayed in the same manner with the solvent blank. The treated plants and control plants were placed in a greenhouse as described above and watered by sub-irrigation to prevent wash-off of the test compounds. After 20-22 days, the condition of the test plants, compared with that of the untreated plants, was determined visually and scored on a scale of 0 to 100 percent where 0 corresponds to no injury and 100 corresponds to complete kill. By applying the well-accepted probit analysis as described by J. Berkson in Journal of the American Statistical Society, 48, 565 (1953) and by D. Finney in “Probit Analysis” Cambridge University Press (1952), the above data can be used to calculate GR20, GR50, GR80 and GR90 values, which are defined as growth reduction factors that correspond to the effective dose of herbicide required to kill or control 20 percent, 50 percent, 80 percent or 90 percent, respectively, of a target plant.

[1] = BRAPP: broadleaf signalgrass, Brachiaria platyphylla
[2] = CYPSS: sedge (Cyperus difformis, esculentus, iria)
[3] = ECHSS: barnyardgrass (Echinochloa crus-galli), junglerice (Echinochloa colonum)
[4] = LEFSS: sprangletop (Leptochloa chinensis, Leptochloa dubia)
[5] = SCPJU: Japanese bulrush, Scirpus juncoides
[6] = SEBEX: hemp sesbania, Sesbania exaltata
[7] = BRAPP: broadleaf signalgrass, Brachiaria platyphylla, 35 g ai/ha, read-out: Visual Growth Reduction (%) 21 Days After Application BRAPP
[8] = BRAPP: broadleaf signalgrass, Brachiaria platyphylla, 70 g ai/ha, read-out: Visual Growth Reduction (%) 21 Days After Application BRAPP
[9] = CYPSS: sedge (Cyperus difformis, esculentus, iria), 35 g ai/ha, read-out: Visual Growth Reduction (%) 21 Days After Application CYPSS
[10] = CYPSS: sedge (Cyperus difformis, esculentus, iria), 70 g ai/ha, read-out: Visual Growth Reduction (%) 21 Days After Application CYPSS
[11] = ECHSS: barnyardgrass (Echinochloa crus-galli), junglerice (Echinochloa colonum), 35 g ai/ha, read-out: Visual Growth Reduction (%) 21 Days After Application ECHSS
[12] = ECHSS: barnyardgrass (Echinochloa crus-galli), junglerice (Echinochloa colonum), 70 g ai/ha, read-out: Visual Growth Reduction (%) 21 Days After Application ECHSS
[13] = LEFSS: sprangletop (Leptochloa chinensis, Leptochloa dubia), 35 g ai/ha, read-out: Visual Growth Reduction (%) 21 Days After Application LEFSS
[14] = LEFSS: sprangletop (Leptochloa chinensis, Leptochloa dubia), 70 g ai/ha, read-out: Visual Growth Reduction (%) 21 Days After Application LEFSS
[15] = ORYSS: Oryza sativa, 35 g ai/ha, read-out: Visual Growth Reduction (%) 21 Days After Application ORYSS
[16] = ORYSS: Oryza sativa, 70 g ai/ha, read-out: Visual Growth Reduction (%) 21 Days After Application ORYSS
[17] = SCPJU: Japanese bulrush, Scirpus juncoides, 35 g ai/ha, read-out: Visual Growth Reduction (%) 21 Days After Application SCPJU
[18] = SCPJU: Japanese bulrush, Scirpus juncoides, 70 g ai/ha, read-out: Visual Growth Reduction (%) 21 Days After Application SCPJU
[19] = SEBEX: hemp sesbania, Sesbania exaltata, 35 g ai/ha, read-out: Visual Growth Reduction (%) 21 Days After Application SEBEX
[20] = SEBEX: hemp sesbania, Sesbania exaltata, 70 g ai/ha, read-out: Visual Growth Reduction (%) 21 Days After Application SEBEX

| SMILES | GR50 BRAPP [1] [g ai/ha] | GR80 BRAPP [1] [g ai/ha] | GR50 CYPSS [2] [g ai/ha] | GR80 CYPSS [2] [g ai/ha] | GR50 ECHSS [3] [g ai/ha] | GR80 ECHSS [3] [g ai/ha] | GR50 LEFSS [4] [g ai/ha] | GR80 LEFSS [4] [g ai/ha] | GR20 ORYSS [g ai/ha] | GR50 SCPJU [5] [g ai/ha] | GR80 SCPJU [5] [g ai/ha] | GR50 SEBEX [6] [g ai/ha] | GR80 SEBEX [6] [g ai/ha] | pest or weed control at 35 g/ha [7] [%] | pest or weed control at 70 g/ha [8] [%] | pest or weed control at 35 g/ha [9] [%] | pest or weed control at 70 g/ha [10] [%] | pest or weed control at 35 g/ha [11] [%] | pest or weed control at 70 g/ha [12] [%] | pest or weed control at 35 g/ha [13] [%] | also measured |
| --- | --- | --- | --- | --- | --- | --- | --- | --- | --- | --- | --- | --- | --- | --- | --- | --- | --- | --- | --- | --- | --- |
| COc1c(N)nc(-c2cc(F)c(Br)cc2F)nc1C(=O)O [Compound 11] | 13 | 44 | 1 | 1 | 11 | 25 | 175 | 463 | 25 | 1 | 1 | 3 | 7 | 60 to 74 | 85 to 94 | 95 to 100 | 95 to 100 | 85 to 94 | 95 to 100 | 0 to 29 | pest or weed control at 70 g/ha [14]: 0 to 29%; pest or weed control at 35 g/ha [15]: 30 to 44%; pest or weed control at 70 g/ha [16]: 45 to 59%; pest or weed control at 35 g/ha [17]: 95 to 100%; pest or weed control at 70 g/ha [18]: 95 to 100%; pest or weed control at 35 g/ha [19]: 95 to 100%; pest or weed control at 70 g/ha [20]: 95 to 100% |
| COC(=O)c1nc(-c2ccc(Br)cc2)c(Cl)c(N)c1Cl [Compound 47] | >70 | >70 | 1 | 3 | >70 | >70 | >70 | >70 | >70 | 1 | 1 | 1 | 1 | 30 to 44 | 30 to 44 | 95 to 100 | 95 to 100 | 30 to 44 | 0 to 29 | 75 to 84 | pest or weed control at 70 g/ha [14]: 0 to 29%; pest or weed control at 35 g/ha [15]: 0 to 29%; pest or weed control at 70 g/ha [16]: 0 to 29%; pest or weed control at 35 g/ha [17]: 95 to 100%; pest or weed control at 70 g/ha [18]: 95 to 100%; pest or weed control at 35 g/ha [19]: 95 to 100%; pest or weed control at 70 g/ha [20]: 95 to 100% |
| COC(=O)c1nc(-c2ccc(C(F)(F)F)c(F)c2)c(Cl)c(N)c1Cl [Compound 58] | >70 | >70 | 4 | 8 | >70 | >70 | >70 | >70 | >70 | 5 | 8 | 2 | 4 | – | – | – | – | – | – | – | Visual Growth Reduction (%) 21 Days After Application BRAPP (BRAPP: broadleaf signalgrass, Brachiaria platyphylla, 35 g ai/ha): G (0-29); Visual Growth Reduction (%) 21 Days After Application BRAPP (BRAPP: broadleaf signalgrass, Brachiaria platyphylla, 70 g ai/ha): G (0-29); Visual Growth Reduction (%) 21 Days After Application CYPSS (CYPSS: sedge (Cyperus difformis, esculentus, iria), 35 g ai/ha): A (95-100); Visual Growth Reduction (%) 21 Days After Application CYPSS (CYPSS: sedge (Cyperus difformis, esculentus, iria), 70 g ai/ha): A (95-100); Visual Growth Reduction (%) 21 Days After Application ECHSS (ECHSS: barnyardgrass (Echinochloa crus-galli), junglerice (Echinochloa colonum), 35 g ai/ha): G (0-29); Visual Growth Reduction (%) 21 Days After Application ECHSS (ECHSS: barnyardgrass (Echinochloa crus-galli), junglerice (Echinochloa colonum), 70 g ai/ha): G (0-29); Visual Growth Reduction (%) 21 Days After Application LEFSS (LEFSS: sprangletop (Leptochloa chinensis, Leptochloa dubia), 35 g ai/ha): G (0-29); Visual Growth Reduction (%) 21 Days After Application LEFSS (LEFSS: sprangletop (Leptochloa chinensis, Leptochloa dubia), 70 g ai/ha): E (45-59); Visual Growth Reduction (%) 21 Days After Application ORYSS (ORYSS: Oryza sativa, 35 g ai/ha): G (0-29); Visual Growth Reduction (%) 21 Days After Application ORYSS (ORYSS: Oryza sativa, 70 g ai/ha): G (0-29); Visual Growth Reduction (%) 21 Days After Application SCPJU (SCPJU: Japanese bulrush, Scirpus juncoides, 35 g ai/ha): A (95-100); Visual Growth Reduction (%) 21 Days After Application SCPJU (SCPJU: Japanese bulrush, Scirpus juncoides, 70 g ai/ha): A (95-100); Visual Growth Reduction (%) 21 Days After Application SEBEX (SEBEX: hemp sesbania, Sesbania exaltata, 35 g ai/ha): A (95-100); Visual Growth Reduction (%) 21 Days After Application SEBEX (SEBEX: hemp sesbania, Sesbania exaltata, 70 g ai/ha): A (95-100) |
| Nc1cc(-c2ccc(Br)cc2F)nc(C(=O)O)c1Cl [Compound 74] | 1 | 5 | 5 | 10 | 1 | 1 | 6 | 13 | 4 | 1 | 1 | 1 | 1 | 95 to 100 | 95 to 100 | 95 to 100 | 95 to 100 | 95 to 100 | 95 to 100 | 95 to 100 | pest or weed control at 70 g/ha [14]: 95 to 100%; pest or weed control at 35 g/ha [15]: 60 to 74%; pest or weed control at 70 g/ha [16]: 60 to 74%; pest or weed control at 35 g/ha [17]: 95 to 100%; pest or weed control at 70 g/ha [18]: 95 to 100%; pest or weed control at 35 g/ha [19]: 95 to 100%; pest or weed control at 70 g/ha [20]: 95 to 100% |
| COC(=O)c1nc(-c2ccc(Br)cc2F)cc(N)c1Cl [Compound 93] | 1 | 1 | 1 | 2 | 1 | 1 | 6 | 11 | 13 | 1 | 1 | 1 | 1 | 95 to 100 | 95 to 100 | 95 to 100 | 95 to 100 | 95 to 100 | 95 to 100 | 95 to 100 | pest or weed control at 70 g/ha [14]: 95 to 100%; pest or weed control at 35 g/ha [15]: 45 to 59%; pest or weed control at 70 g/ha [16]: 60 to 74%; pest or weed control at 35 g/ha [17]: 95 to 100%; pest or weed control at 70 g/ha [18]: 95 to 100%; pest or weed control at 35 g/ha [19]: 95 to 100%; pest or weed control at 70 g/ha [20]: 95 to 100% |
